# Experimental data: publication PMC9321894, “Design and Anticancer Properties of New Water-Soluble Ruthenium–Cyclopentadienyl Complexes” (Pharmaceuticals, 2022)
# Marks after values point to notes of the source that are not given here.
# Assays:
# [1] = tested on: A2780 ovarian cancer cells; assay: MTT cytotoxicity assay, A2780; assay type: cell-based, human; details: A2780, 72 h, mean ± SD n = 3
# Protocol: (§1) The cytotoxic activity of all complexes was screened against A2780 (ovarian, Sigma-Aldrich, Lisboa, Portugal), MDAMB231 (breast, triple negative, ATCC), and HT29 (colon, ATCC) human cancer cells. Cells were grown in RPMI 1640 (A2780) or DMEM containing GlutaMax-I (MDAMB231), or McCoy’s (HT29) supplemented with 10% FBS and 1% penicillin/streptomycin (Invitrogen, Lisboa, Portugal). All cell lines were kept in a CO2 incubator (Heraeus, Hanau, Germany) with 5% CO2 at 37 °C in a humidified atmosphere. Cell viability was measured using the colorimetric MTT (3-(4,5-dimethylthiazol-2-yl)-2,5-diphenyltetrazolium bromide) assay. For the assays, cells were seeded in 200 μL of complete medium in 96-well plates and incubated at 37 °C for 24 h prior to complex treatment to allow cell adherence. The stock solutions in water (20 mM) of the complexes were freshly prepared and used for sequential dilutions in medium within the concentration range of 10^−10–10^−4 M. Cisplatin was also included in this study as a positive control. After careful removal of the medium, […] of a serial dilution of compounds in fresh medium was added to the cells, and incubation was carried out for 72 h at 37 °C. At the end of the treatment, the medium was discarded, and the cells were incubated with […] of an MTT solution in PBS (0.5 mg mL^−1). After 3 h incubation, medium was removed, and DMSO was added to solubilize the purple formazan crystals formed. The absorbance at 570 nm was measured using a plate spectrophotometer (Power Wave Xs, Bio-Tek, Winooski, VT, USA). Each experiment was repeated at least three times and each concentration tested in at least six replicates. The IC50 values were calculated from dose–response curves analyzed with the GraphPad Prism software (version 5.0).
# [2] = Stability in water in presence of air (UV-vis, 1H and 31P NMR); assay type: physicochemical
# Protocol: The stability of all the complexes in water was evaluated by ^31P NMR and UV–visible spectroscopies. Generally, a 5 mm NMR tube was charged in the air with the 10 mg of each complex and D2O (0.8 mL). ^1H NMR and ^31P NMR were monitored for four days to evaluate if there was any decomposition product. Decomposition/instability of the compound can be assessed by the disappearance of the NMR signals and/or by the appearance of new signals that could not be assigned to the known complex, beyond the appearance of free mTPPMS phosphine signals. Any eventual changes in the charge transfer bands between ruthenium and ligands were followed by UV–visible in the 300–900 nm range.
# [3] = tested on: MDAMB231 triple-negative breast cancer cells; assay: MTT cytotoxicity assay, MDAMB231; assay type: cell-based, human; details: MDAMB231, 72 h, mean ± SD n = 3
# Protocol: as §1
# [4] = target: T1, fatty-acid-free human serum albumin (HSA^faf) (Homo sapiens, UniProt P02768); assay: Fluorescence quenching of HSA^faf (Trp214); assay type: binding; details: for KSV: pH 7.4
# T1 construct: purchased Sigma-Aldrich A3782
# Protocol: Human serum albumin (HSA) was dissolved in 10 mM HEPES buffer (pH 7.4). The HSA concentration was determined spectrophotometrically using the absorbance value at 280 nm (ε280 = 36,500 M^−1cm^−1). Complex 6 was dissolved in 10 mM HEPES buffer (pH 7.4). A series of ruthenium-protein batch solutions were prepared by adding different concentrations of ruthenium solutions to the protein solution prepared previously. For fluorescence acquisition, the final HSA concentration was 2.5 μM, and the ruthenium were 0, 0.6, 1.2, 1.8, 2.5, 5, 7.5, 10, 12.5, 15, 17.5, 20, 22.5, 25, 27.5, 30, 32.5, 35, 37.5, 40, 42.5, and 45 μM. […] The reference solutions were prepared following the procedures described above without protein.
# Steady-state fluorescence measurements were carried out with a Fluorolog Model-3.22 spectrofluorometer from Horiba Jobin Yvon at 293.15, 298.15, and 310.15 K. All measurements were performed in Hellma® semi-micro fluorescence cuvettes (Suprasil® quartz, path length 10 × 4 mm, chamber volume […]) with the 10 mm path length for the excitation of the sample. The excitation and emission slit widths were fixed at 4.0 nm, and the excitation wavelength was set at 295 nm to selectively excite the tryptophan 214 residue. The emission spectra were recorded from 305 to 550 nm. Solutions of ruthenium complex in 10 mM HEPES buffer pH 7.4 in corresponding concentrations were used as reference for the measured fluorescence spectra of protein-complex mixtures. […] The fluorescence intensities were corrected for the absorption of the exciting light and re-absorption of the emitted light to decrease the inner filter effect using UV–visible absorption data recorded for each sample on a Jasco V-660 spectrophotometer in the range of 260 to 900 nm with 1 cm path quartz cells.
# Fluorescence quenching of HSA by complex [Ru(η5-C5H5)(mTPPMS)(bopy)][CF3SO3] (6) […]
# F0 = 1 + K τ (Q) = 1 + K (Q) (S1) where F0 and F are the fluorescence intensities of HSA in the absence and presence of the quencher [Ru(η5-C5H5)(mTPPMS)(bopy)][CF3SO3]; [Q] is the quencher concentration; Kq is the bimolecular quenching constant; t0 is the average fluorescence lifetime of HSA in the absence of the quencher, and KSV is the Stern-Volmer quenching constant.
# Figure S10. Stern-Volmer plots at pH7.4 for the quenching of (A) HSA and (B) HSA faf by [Ru(η5-C5H5)(mTPPMS)(bopy)][CF3SO3] at three temperatures (◆) 293 K, (●) 298 K, (▲) 310 K.
# log(F0 − F) = log K + nlog[Q] ( S2) […]
# where Ka is the association constant for a site and n is the number of binding sites by protein.
# Figure S11. Double-log plots for the fluorescence quenching for the (A) {HSA-[Ru(η5-C5H5)(mTPPMS)(bopy)][CF3SO3]} and (B) {HSAfaf-[Ru(η5-C5H5)(mTPPMS)(bopy)][CF3SO3]} systems at three temperatures (◆) 293 K, (●) 298 K, (▲) 310 K. […]
# T1 sequence (P02768 25-609): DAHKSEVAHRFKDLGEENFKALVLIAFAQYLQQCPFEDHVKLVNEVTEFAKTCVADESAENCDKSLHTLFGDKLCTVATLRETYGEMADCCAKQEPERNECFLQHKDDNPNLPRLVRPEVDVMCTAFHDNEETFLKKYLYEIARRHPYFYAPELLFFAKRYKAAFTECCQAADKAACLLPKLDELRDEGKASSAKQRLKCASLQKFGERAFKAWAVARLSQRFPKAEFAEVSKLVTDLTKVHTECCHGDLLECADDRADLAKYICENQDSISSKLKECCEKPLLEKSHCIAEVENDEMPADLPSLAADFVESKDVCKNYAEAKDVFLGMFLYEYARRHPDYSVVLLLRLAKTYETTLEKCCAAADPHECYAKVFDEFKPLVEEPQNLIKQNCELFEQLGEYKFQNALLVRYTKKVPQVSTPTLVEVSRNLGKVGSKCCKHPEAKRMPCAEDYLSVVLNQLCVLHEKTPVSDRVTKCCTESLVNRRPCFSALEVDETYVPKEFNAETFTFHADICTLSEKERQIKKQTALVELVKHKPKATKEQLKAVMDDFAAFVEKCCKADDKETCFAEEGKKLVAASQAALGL
substance,measurement,setting,value
[RuCp(mTPPMSNa)(bopy)][CF3SO3] [Compound 6],IC50,[1],0.37 ± 0.2 µM
same,Changes in the UV–vis spectra in aqueous solution,[2]; over 4 days at 37 °C,insignificant
same,"Stability in water, Time (Days)","[2]; water, in presence of air, 25 °C, time without hydrolysis",>4 ^[b] Days
same,IC50,[3],13.4 ± 0.4 µM
same,Ka (association constant for a site),[4]; 293.15 K,(57.293 ± 1.27) × 10^4 L mol^−1
same,Kq,[4]; 293.15 K,(28.7 ± 0.49) × 10^12 L mol^−1 s^−1
same,n (number of binding sites),[4]; 293.15 K,1.048
same,ΔG,[4]; 293.15 K,-37.426 kcal/mol
same,KSV,[4]; 293.15 K,(28.7 ± 0.49) × 10^4 L mol^−1
same,Ka (association constant for a site),[4]; 298.15 K,(66.764 ± 1.29) × 10^4 L mol^−1
same,Kq,[4]; 298.15 K,(40.7 ± 0.75) × 10^12 L mol^−1 s^−1
same,n (number of binding sites),[4]; 298.15 K,1.023
same,ΔG,[4]; 298.15 K,-37.899 kcal/mol
same,KSV,[4]; 298.15 K,(40.7 ± 0.75) × 10^4 L mol^−1
same,Ka (association constant for a site),[4]; 310.15 K,(80.668 ± 1.17) × 10^4 L mol^−1
same,Kq,[4]; 310.15 K,(72.6 ± 1.02) × 10^12 L mol^−1 s^−1
same,n (number of binding sites),[4]; 310.15 K,1.006
same,ΔG,[4]; 310.15 K,-39.034 kcal/mol
same,KSV,[4]; 310.15 K,(72.6 ± 1.02) × 10^4 L mol^−1
same,ΔH,"[4]; Van't Hoff, 293.15-310.15 K",40.51 (R^2 = 0.9938) kJ mol^−1
same,ΔS,"[4]; Van't Hoff, 293.15-310.15 K",396.16 J mol^−1 K^−1
same,Quenching of fluorescence intensity,"[4]; highest Ru concentration (45 μM), pH 7.4, incubation at 298 K for 24 h",97%
